According to the supplement of paper PMC10307832:

What was measured:
Assay in all cases: relative viability (nuclei count vs DMSO), 5 days (fraction); higher = more cells survive
[1] = compound: CN[C@@H]1C[C@H]2O[C@@](C)([C@@H]1OC)n1c3ccccc3c3c4c(c5c6ccccc6n2c5c31)C(=O)NC4 [Staurosporine] + CC(=O)c1c(C)c2cnc(Nc3ccc(N4CCNCC4)cn3)nc2n(C2CCCC2)c1=O [Palbociclib] (partner 0.5 µM)
Summary of the method: (§1)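 Lung cancer cell lines in 1536-well plates were dosed by pin tool the day after seeding, either with one drug alone or with a fixed anchor-drug dose plus five library-drug doses (not always all listed) in √10 steps. After 5 days, cells were fixed and their nuclei stained in one step (final 0.05% Triton X-100, 1% formaldehyde, 1 ug/ml Hoechst), then counted on 4× images. Relative viability is the nuclei count in treated wells divided by that in vehicle wells. Values are medians of duplicate plates.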

[2] = compound: CN[C@@H]1C[C@H]2O[C@@](C)([C@@H]1OC)n1c3ccccc3c3c4c(c5c6ccccc6n2c5c31)C(=O)NC4 [Staurosporine] + C[C@]1(O)C[C@@H](c2nc(-c3ccc4ccc(-c5ccccc5)nc4c3)c3c(N)nccn32)C1 [Linsitinib] (partner 1 µM)
Summary of the method: as §1

[3] = compound: CN[C@@H]1C[C@H]2O[C@@](C)([C@@H]1OC)n1c3ccccc3c3c4c(c5c6ccccc6n2c5c31)C(=O)NC4 [Staurosporine] + O=C(CCCCCCC(=O)Nc1ccccc1)NO [Vorinostat] (partner 1 µM)
Summary of the method: as §1

[4] = compound: O=c1[nH]cc(F)c(=O)[nH]1 [5-Fluorouracil] + C[C@]1(O)C[C@@H](c2nc(-c3ccc4ccc(-c5ccccc5)nc4c3)c3c(N)nccn32)C1 [Linsitinib] (partner 1 µM)
Summary of the method: as §1

| Cell Line | relative viability ([1]; first compound 0.005 µM) | relative viability ([1]; first compound 0.01581 µM) | relative viability ([1]; first compound 0.05 µM) | relative viability ([1]; first compound 0.1581 µM) | relative viability ([1]; first compound 0.5 µM) | relative viability ([2]; first compound 0.005 µM) | relative viability ([2]; first compound 0.01581 µM) | relative viability ([2]; first compound 0.05 µM) | relative viability ([2]; first compound 0.1581 µM) | relative viability ([2]; first compound 0.5 µM) | relative viability ([3]; first compound 0.005 µM) | relative viability ([3]; first compound 0.01581 µM) | relative viability ([3]; first compound 0.05 µM) | relative viability ([3]; first compound 0.1581 µM) | relative viability ([3]; first compound 0.5 µM) | relative viability ([4]; first compound 0.02 µM) | relative viability ([4]; first compound 0.2 µM) | relative viability ([4]; first compound 0.6325 µM) | relative viability ([4]; first compound 2 µM) |
| --- | --- | --- | --- | --- | --- | --- | --- | --- | --- | --- | --- | --- | --- | --- | --- | --- | --- | --- | --- |
| LCLC-97TM1 | 0.238 | 0.127 | 0.133 | 0.141 | 0.17 | 0.237 | 0.163 | 0.163 | 0.207 | 0.144 | 0.334 | 0.0752 | 0.205 | 0.113 | 0.0631 | 0.175 | 0.193 | 0.153 | 0.144 |
| COR-L23 | 0.218 | 0.109 | 0.117 | 0.103 | 0.0791 | 0.534 | 0.27 | 0.134 | 0.0552 | 0.041 | 0.159 | 0.147 | 0.0727 | 0.0709 | 0.0639 | 0.846 | 0.945 | 0.43 | 0.234 |
| NCI-H1355 | 0.411 | 0.3 | 0.214 | 0.188 | 0.161 | 0.908 | 0.543 | 0.24 | 0.269 | 0.223 | 0.597 | 0.227 | 0.235 | 0.138 | 0.111 | 0.639 | 0.681 | 0.398 | 0.314 |
| EPLC-272H | 0.3 | 0.275 | 0.193 | 0.157 | 0.0846 | 1.17 | 0.732 | 0.352 | 0.25 | 0.234 | 0.216 | 0.141 | 0.0826 | 0.0904 | 0.0549 | 1.1 | 0.9 | – | 0.305 |
| NCI-H1651 | 0.497 | 0.471 | 0.318 | 0.313 | 0.249 | 0.827 | 0.587 | 0.331 | 0.122 | 0.0924 | 0.609 | 0.537 | 0.402 | 0.122 | 0.116 | 0.973 | 0.859 | 0.602 | 0.468 |
| SW 1573 | 0.172 | 0.113 | 0.131 | 0.0619 | 0.081 | 0.586 | 0.449 | 0.144 | 0.131 | 0.107 | 0.811 | 0.391 | 0.152 | 0.0813 | 0.0557 | 0.734 | 0.917 | 0.782 | 0.483 |
| HCC-44 | – | – | 0.768 | 0.53 | 0.41 | 0.328 | 0.194 | 0.101 | 0.111 | 0.0981 | 1.1 | – | 0.517 | 0.27 | 0.2 | 0.613 | 0.57 | 0.451 | 0.272 |
| NCI-H460 | 0.0657 | 0.0441 | 0.0429 | 0.0284 | 0.0184 | 0.406 | 0.169 | 0.0258 | 0.0051 | 0.0055 | – | 0.179 | 0.0234 | 0.0138 | 0.0076 | 0.872 | – | 0.163 | 0.042 |
| SK-LU-1 | 0.326 | 0.186 | 0.166 | 0.164 | 0.161 | 0.313 | 0.263 | 0.205 | 0.2 | 0.145 | 0.265 | 0.206 | 0.179 | 0.164 | 0.148 | 1.23 | 1.08 | 1.13 | 0.941 |
| LOU-NH91 | 0.535 | 0.446 | 0.475 | 0.314 | 0.28 | 0.979 | 0.744 | 0.63 | 0.365 | 0.274 | 0.859 | 0.405 | 0.61 | 0.267 | 0.294 | 0.921 | 0.889 | 0.646 | 0.415 |
| RERF-LC-KJ | 0.914 | 0.916 | 0.475 | 0.4 | 0.26 | 0.895 | 0.804 | 0.431 | 0.213 | 0.166 | 0.599 | 0.403 | 0.302 | 0.197 | 0.224 | 0.832 | 0.775 | 0.792 | 0.764 |
| NCI-H2126 | 0.353 | 0.339 | 0.348 | 0.33 | 0.327 | 0.797 | 0.553 | 0.461 | 0.376 | 0.366 | 0.784 | 0.201 | 0.426 | 0.233 | – | 0.64 | 0.378 | 0.341 | 0.285 |
| LU99A | 0.366 | 0.196 | 0.196 | 0.211 | 0.174 | 0.441 | 0.212 | 0.201 | 0.182 | 0.14 | 0.452 | 0.16 | 0.173 | 0.128 | 0.107 | 0.549 | 0.607 | 0.426 | 0.422 |
| BEN | 0.553 | 0.478 | 0.397 | 0.446 | 0.295 | 1.23 | 0.923 | 0.436 | 0.52 | 0.245 | 0.879 | 0.885 | 0.506 | 0.319 | 0.264 | 0.813 | 0.754 | 0.641 | 0.646 |
| NCI-H1666 | 0.63 | 0.555 | 0.679 | 0.482 | 0.462 | 0.475 | 0.42 | 0.322 | 0.238 | 0.221 | 0.938 | 0.824 | 0.801 | 0.593 | 0.446 | 0.777 | 0.412 | 0.401 | 0.321 |
| NCI-H1993 | 0.776 | 0.685 | 0.526 | 0.395 | 0.339 | 0.761 | 0.634 | 0.605 | 0.439 | 0.55 | 0.588 | 0.275 | 0.475 | 0.344 | 0.232 | 0.8 | 0.714 | 0.713 | 0.608 |
| NCI-H520 | 0.272 | 0.262 | 0.159 | 0.116 | 0.12 | 1.05 | 0.824 | 0.604 | 0.213 | 0.128 | 0.726 | 0.498 | 0.384 | 0.191 | 0.148 | 0.892 | 1.07 | 0.751 | 0.356 |
